In ChEMBL document CHEMBL2331133, “Inhibitory effect on NO production of triterpenes from the fruiting bodies of Ganoderma lucidum” (Bioorg Med Chem Lett, 2013):
Active and inactive are the calls of the source. The rule behind the calls is not given here.

How the values were obtained:
RAW264.7 [1] = test: Cytotoxicity against mouse RAW264.7 cells assessed as cell viability at 50 uM after 24 hrs by MTT assay; assay type: cell-based; details: for Activity: mouse, raw264.7, 24 h, 50 µM
RAW264.7 [2] = test: Cytotoxicity against LPS-stimulated mouse RAW264.7 cells assessed as cell viability at 50 uM after 24 hrs by MTT assay; assay type: cell-based; details: raw264.7, 24 h
RAW264.7 [3] = test: Antiinflammatory activity in mouse RAW264.7 cells assessed as inhibition of LPS-induced nitric oxide production by Griess reaction method; assay type: functional, cell-based
RAW264.7 [4] = test: Inhibition of LPS-induced iNOS expression in mouse RAW264.7 cells treated 30 mins before LPS challenge measured after 18 hrs by immunoblot analysis; assay type: functional, cell-based
RAW264.7 [5] = test: Inhibition of LPS-induced COX-2 expression in mouse RAW264.7 cells at 1 to 30 uM treated 30 mins before LPS challenge measured after 18 hrs by immunoblot analysis; assay type: functional, cell-based

CC(C)[C@@H](C)/C=C/[C@@H](C)[C@H]1CC[C@H]2C3=CC[C@H]4C[C@@H](O)CC[C@]4(C)[C@H]3CC[C@]12C
Activity (RAW264.7 [1]): Non-toxic | Activity (RAW264.7 [2]): Non-toxic

CCCCOC(=O)CC[C@@H](C)[C@H]1CC(=O)[C@@]2(C)C3=C(C(=O)[C@@H](OC(C)=O)[C@]12C)[C@@]1(C)CCC(=O)C(C)(C)[C@@H]1CC3=O [BUTYL LUCIDENATE D2]
Activity (RAW264.7 [1]): Non-toxic | Activity (RAW264.7 [2]): Non-toxic | IC50 (RAW264.7 [3]): 35 µM

CCCCOC(=O)CC[C@@H](C)[C@H]1CC(=O)[C@@]2(C)C3=C(C(=O)[C@@H](OC(C)=O)[C@]12C)[C@@]1(C)CC[C@H](O)C(C)(C)[C@@H]1CC3=O [BUTYL LUCIDENATE E2]
Activity (RAW264.7 [1]): Non-toxic | Activity (RAW264.7 [2]): Non-toxic | inhibition (RAW264.7 [4]): Dose-dependent effect | inhibition (RAW264.7 [5]): Active | IC50 (RAW264.7 [3]): 6.4 µM

CCCCOC(=O)CC[C@@H](C)[C@H]1CC(=O)[C@@]2(C)C3=C(C(=O)C[C@]12C)[C@@]1(C)CC[C@H](O)C(C)(C)[C@@H]1C[C@@H]3O [BUTYL LUCIDENATE N]
Activity (RAW264.7 [1]): Non-toxic | Activity (RAW264.7 [2]): Non-toxic | inhibition (RAW264.7 [4]): Dose-dependent effect | inhibition (RAW264.7 [5]): Active | IC50 (RAW264.7 [3]): 4.5 µM

CCCCOC(=O)CC[C@@H](C)[C@H]1CC(=O)[C@@]2(C)C3=C(C(=O)[C@@H](OC(C)=O)[C@]12C)[C@@]1(C)CC[C@H](O)C(C)(C)[C@@H]1C[C@@H]3O [BUTYL LUCIDENATE P]
Activity (RAW264.7 [1]): Non-toxic | Activity (RAW264.7 [2]): Non-toxic | inhibition (RAW264.7 [4]): Dose-dependent effect | inhibition (RAW264.7 [5]): Active | IC50 (RAW264.7 [3]): 7.4 µM

CC(C)[C@@H](C)/C=C/[C@@H](C)[C@H]1CC[C@@H]2[C@]1(C)CC[C@H]1[C@]23C=C[C@]2(C[C@@H](O)CC[C@]12C)OO3 [ERGOSTEROL PEROXIDE]
Activity (RAW264.7 [1]): Non-toxic | Activity (RAW264.7 [2]): Non-toxic | IC50 (RAW264.7 [3]): 9.4 µM

CC(C)[C@@H](C)/C=C/[C@@H](C)[C@H]1CC[C@H]2C3=CC=C4C[C@@H](O)CC[C@]4(C)[C@H]3CC[C@]12C [ERGOSTEROL]
Activity (RAW264.7 [1]): Non-toxic | Activity (RAW264.7 [2]): Non-toxic

C[C@H](CCC=C(CO)CO)[C@H]1CC[C@@]2(C)C3=CC[C@H]4C(C)(C)C(=O)CC[C@]4(C)C3=CC[C@]12C [GANODERIOL F]
Activity (RAW264.7 [1]): Non-toxic | Activity (RAW264.7 [2]): Non-toxic | IC50 (RAW264.7 [3]): 36 µM

C[C@H](CC[C@@H](O)C(C)(C)O)[C@H]1CC[C@@]2(C)C3=CC[C@H]4C(C)(C)C(=O)CC[C@]4(C)C3=CC[C@]12C [GANODERMANONDIOL]
Activity (RAW264.7 [1]): Non-toxic | Activity (RAW264.7 [2]): Non-toxic

CCCCOC(=O)CC[C@@H](C)[C@H]1C[C@H](O)[C@@]2(C)C3=C(C(=O)C[C@]12C)[C@@]1(C)CCC(=O)C(C)(C)[C@@H]1C[C@@H]3O [LUCIDENATE Q]
IC50 (RAW264.7 [1]; Mus musculus, RAW264.7, 24 h): 14 µM | IC50 (RAW264.7 [3]): 4.3 µM

COC(=O)C(C)CC(=O)C[C@@H](C)[C@H]1CC(=O)[C@@]2(C)C3=C(C(=O)[C@@H](OC(C)=O)[C@]12C)[C@@]1(C)CC[C@H](O)C(C)(C)[C@@H]1CC3=O (stereo partly specified) [METHYL GANODERATE H]
Activity (RAW264.7 [1]): Non-toxic | Activity (RAW264.7 [2]): Non-toxic

COC(=O)C(C)CC(=O)C[C@@H](C)[C@H]1C[C@H](O)[C@@]2(C)C3=C(C(=O)C[C@]12C)[C@@]1(C)CCC(=O)C(C)(C)[C@@H]1CC3=O (stereo partly specified) [METHYL GANODERATE J]
Activity (RAW264.7 [1]): Non-toxic | Activity (RAW264.7 [2]): Non-toxic | IC50 (RAW264.7 [3]): 9.2 µM

COC(=O)CC[C@@H](C)[C@H]1CC(=O)[C@@]2(C)C3=C(C(=O)C[C@]12C)[C@@]1(C)CCC(=O)C(C)(C)[C@@H]1C[C@@H]3O [METHYL LUCIDENATE A]
Activity (RAW264.7 [1]): Non-toxic | Activity (RAW264.7 [2]): Non-toxic

COC(=O)CC[C@@H](C)[C@H]1CC(=O)[C@@]2(C)C3=C(C(=O)C[C@]12C)[C@@]1(C)CC[C@H](O)C(C)(C)[C@@H]1C[C@@H]3O [METHYL LUCIDENATE N]
Activity (RAW264.7 [1]): Non-toxic | Activity (RAW264.7 [2]): Non-toxic
